Measured values reported in paper PMC12074421, “Development and Characterization of pFluor50, a Fluorogenic-Based Kinetic Assay System for High-Throughput Inhibition Screening and Characterization of Time-Dependent Inhibition and Inhibition Type for Six Human CYPs” (Molecules, 2025).

Tests used:
[1] = biological target: T1, CYP2C19 (Homo sapiens, UniProt P33261); experiment: pFluor50 Michaelis–Menten kinetics, CYP2C19 with 3OMF; assay type: in vitro ADME
T1 construct: purchased Sigma Aldrich (CYPexpress, Oxford Biomedical Research, Inc.) MTOXCE2C19
Procedure: (§1) In general, the protocol for determination of the Michaelis–Menten kinetic parameters (KM and Vmax) involved addition of the appropriate master mix to phosphate buffer followed by addition of the appropriate amount of enzyme to the mix. The master mix was determined for each specific CPY450 based on empirical methods involving each reagent to obtain a linear range of enzyme activity. A total of 30 µL of this enzyme mix was then added to each well of the 384-well plate. Next, initial background readings were taken for 5 min, after which the appropriate amount of substrate was dispensed into each well using the onboard reagent dispenser of the plate reader. All plates contained one blank well without enzyme (only master mix) for each substrate concentration. […] Table 1 provides the formulation of the master mix for each CYP, the kinetic read time with substrate, the read time interval, the concentration range of the substrate used for the Michaelis–Menten kinetics, the Ex and Em wavelengths, and the concentration of substrate for inhibition/activation screening. Table S1 details the specific parameters used for the plate reader for each CYP–substrate pair.
(§2) For determining the Michaelis–Menten kinetic parameters (KM and Vmax) for each CYP–substrate pair, kinetic studies were performed in which a range of different concentrations of the substrate were used. Table 1 details the formulations for the master mix, CYPexpress^TM concentrations, and concentration ranges of each specific substrate. For each CYP–substrate pair, plate reader parameters were set up as described in Table S1. […] Briefly, the working solution was prepared for each substrate and then primed into one of the dispensers on the plate reader. […] The amount of CYPexpress reagent in units/(mg/mL) was determined for each enzyme as new lots may have slightly different activities, and the activity of the reagent may change over time. The appropriate mass of each CYPexpress^TM reagent needed to obtain the required units was measured using an analytical balance and was transferred to the master mix solution. […]

[2] = biological target: CYP2D6 (Homo sapiens, UniProt P10635); experiment: pFluor50 Michaelis–Menten kinetics, CYP2D6 with Eres; assay type: in vitro ADME; design: purchased Sigma Aldrich (CYPexpress, Oxford Biomedical Research, Inc.) MTOXCE2D6
Procedure: as §1, with “reader.” for “reader. All plates contained one blank well without enzyme (only master mix) for each substrate concentration.”
For determining the Michaelis–Menten kinetic parameters (KM and Vmax) for each CYP–substrate pair, kinetic studies were performed in which a range of different concentrations of the substrate were used. […] For each CYP–substrate pair, plate reader parameters were set up as described in Table S1. […]

[3] = biological target: CYP2C9 (Homo sapiens, UniProt P11712); experiment: pFluor50 Michaelis–Menten kinetics, CYP2C9 with Eres; assay type: in vitro ADME; design: purchased Sigma Aldrich (CYPexpress, Oxford Biomedical Research, Inc.) MTOXCE2C9
Procedure: as §1, §2

[4] = substrate: CCOc1ccc2nc3ccc(=O)cc-3oc2c1; experiment: pFluor50 Michaelis–Menten kinetics, CYP2D6 with Eres; assay type: in vitro ADME, human; settings: pH 7.4
Procedure: as §1
For determining the Michaelis–Menten kinetic parameters (KM and Vmax) for each CYP–substrate pair, kinetic studies were performed in which a range of different concentrations of the substrate were used. Table 1 details the formulations for the master mix, CYPexpress^TM concentrations, and concentration ranges of each specific substrate. For each CYP–substrate pair, plate reader parameters were set up as described in Table S1. The protocol used for Michaelis–Menten kinetics was similar for all the CYPs. Briefly, the working solution was prepared for each substrate and then primed into one of the dispensers on the plate reader. The other dispenser was primed with the buffer solution. 1.5 mL of phosphate buffer solution (pH 7.4) was used to prepare the master mix with the appropriate concentration of each reagent as specified in Table 1 (NADPH, NADP+, G6P, G6PDH, and/or MgCl2). The amount of CYPexpress reagent in units/(mg/mL) was determined for each enzyme as new lots may have slightly different activities, and the activity of the reagent may change over time. The appropriate mass of each CYPexpress^TM reagent needed to obtain the required units was measured using an analytical balance and was transferred to the master mix solution. This solution was mixed, and 30 µL of the solution was added to each well using a multichannel pipette. […] The plate was then transferred to the plate reader and readings were taken at the time intervals, for the appropriate length of time, and at the appropriate wavelengths as specified in Table 1.
Calibration curves were constructed using the determined plate reader settings (Figure S3) and concentrations of the products formed to allow for the calculation of product formation rates based on the observed fluorescence. For these calculations, we presumed that the total increase in observed fluorescence over time was due only to product formation. Calibration curves were generated with 6 different concentrations of the products (fluorescein and resorufin), which spanned the relative fluorescence units (RFU) observed during the kinetic experiments. […] Therefore, the exact rate of formation could not be determined, and the Vmax for CYP3A4 cleavage of dibenzyl fluorescein has been reported as the rate of change in relative fluorescence units (RFUs) per minute.

[5] = other: CYP2D6 1 mg/mL, three biological replicates

CYP2C9, sequence (P11712 whole entry): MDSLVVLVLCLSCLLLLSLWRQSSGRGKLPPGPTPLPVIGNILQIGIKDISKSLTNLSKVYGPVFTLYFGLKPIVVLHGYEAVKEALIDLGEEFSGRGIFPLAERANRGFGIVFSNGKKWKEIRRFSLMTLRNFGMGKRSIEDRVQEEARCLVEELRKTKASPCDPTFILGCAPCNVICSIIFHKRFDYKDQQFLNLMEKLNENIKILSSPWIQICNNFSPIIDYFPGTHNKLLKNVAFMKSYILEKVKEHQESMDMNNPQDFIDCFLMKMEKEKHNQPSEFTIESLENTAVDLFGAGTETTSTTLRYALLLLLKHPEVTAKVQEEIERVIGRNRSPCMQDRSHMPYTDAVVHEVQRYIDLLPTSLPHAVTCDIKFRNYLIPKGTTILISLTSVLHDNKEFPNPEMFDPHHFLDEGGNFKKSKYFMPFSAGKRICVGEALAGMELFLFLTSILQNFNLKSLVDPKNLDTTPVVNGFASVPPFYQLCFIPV
T1 sequence (P33261 whole entry): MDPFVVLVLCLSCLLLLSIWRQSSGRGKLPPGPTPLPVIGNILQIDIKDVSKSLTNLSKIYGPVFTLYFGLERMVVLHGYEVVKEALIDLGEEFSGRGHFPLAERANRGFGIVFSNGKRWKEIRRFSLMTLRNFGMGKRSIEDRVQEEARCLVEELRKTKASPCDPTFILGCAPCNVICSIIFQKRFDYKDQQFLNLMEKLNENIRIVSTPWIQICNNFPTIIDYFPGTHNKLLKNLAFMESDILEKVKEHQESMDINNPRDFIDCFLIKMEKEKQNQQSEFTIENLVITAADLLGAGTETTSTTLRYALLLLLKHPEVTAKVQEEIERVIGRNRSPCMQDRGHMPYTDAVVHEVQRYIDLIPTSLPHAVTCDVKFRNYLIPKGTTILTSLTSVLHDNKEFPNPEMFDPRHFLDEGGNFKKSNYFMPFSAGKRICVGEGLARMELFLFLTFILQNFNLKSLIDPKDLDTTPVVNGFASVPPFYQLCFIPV

COc1ccc2c(-c3ccccc3C(=O)O)c3ccc(=O)cc-3oc2c1 [3OMF, 2-(6-methoxy-3-oxo-3H-xanthen-9-yl)benzoic acid]
Vmax – repeat 1 ([1]; CYP2C19, biological repeat 1): 19.35 nmol/min | Vmax – repeat 2 ([1]; CYP2C19, biological repeat 2): 15.86 nmol/min | Vmax – repeat 3 ([1]; CYP2C19, biological repeat 3): 19.37 nmol/min

CCOc1ccc2nc3ccc(=O)cc-3oc2c1 [Eres, 7-ethoxy-3H-phenoxazin-3-one]
Vmax – repeat 1 ([2]; CYP2D6, biological repeat 1): 1.22 nmol/min | Vmax – repeat 2 ([2]; CYP2D6, biological repeat 2): 0.72 nmol/min | Vmax – repeat 1 ([3]; CYP2C9, biological repeat 1): 0.40 nmol/min | Vmax – repeat 2 ([3]; CYP2C9, biological repeat 2): 0.39 nmol/min | Vmax – repeat 3 ([3]; CYP2C9, biological repeat 3): 0.49 nmol/min

B1: CYP2D6 (Homo sapiens) (protein)
chain: MGLEALVPLAVIVAIFLLLVDLMHRRQRWAARYPPGPLPLPGLGNLLHVDFQNTPYCFDQLRRRFGDVFSLQLAWTPVVVLNGLAAVREALVTHGEDTADRPPVPITQILGFGPRSQGVFLARYGPAWREQRRFSVSTLRNLGLGKKSLEQWVTEEAACLCAAFANHSGRPFRPNGLLDKAVSNVIASLTCGRRFEYDDPRFLRLLDLAQEGLKEESGFLREVLNAVPVLLHIPALAGKVLRFQKAFLTQLDELLTEHRMTWDPAQPPRDLTEAFLAEMEKAKGNPESSFNDENLRIVVADLFSAGMVTTSTTLAWGLLLMILHPDVQRRVQQEIDDVIGQVRRPEMGDQAHMPYTTAVIHEVQRFGDIVPLGVTHMTSRDIEVQGFRIPKGTTLITNLSSVLKDEAVWEKPFRFHPEHFLDAQGHFVKPEAFLPFSAGRRACLGEPLARMELFLFFTSLLQHFSFSVPTGQPRPSHHGVFAFLVSPSPYELCAVPR
notes: purchased Sigma Aldrich (CYPexpress, Oxford Biomedical Research, Inc.) MTOXCE2D6
Km [4, 5]: 1.63 ± 0.7 µM | Vmax [4, 5]: 0.00093 µmol/min | Km ([4]; other: CYP2D6, biological repeat 1): 2.43 µM | Km ([4]; other: CYP2D6, biological repeat 2): 0.89 µM | Km ([4]; other: CYP2D6, biological repeat 3): 1.57 µM
